Assay [1] has as its target T1, Neutrophil elastase (Homo sapiens, UniProt P08246).
T1 sequence (P08246 whole entry): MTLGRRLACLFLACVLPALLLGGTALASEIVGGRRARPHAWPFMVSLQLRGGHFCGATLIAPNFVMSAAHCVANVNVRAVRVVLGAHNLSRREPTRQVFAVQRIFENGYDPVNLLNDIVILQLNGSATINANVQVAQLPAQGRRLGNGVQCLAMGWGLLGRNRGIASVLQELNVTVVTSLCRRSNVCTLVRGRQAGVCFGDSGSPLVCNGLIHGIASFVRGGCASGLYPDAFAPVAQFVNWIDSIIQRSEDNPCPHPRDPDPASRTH
In words: Inhibition of Human leukocyte elastase.

The target of assay [2] is T1, Neutrophil elastase. In words: Compound was tested for its inhibitory effect against Human leukocyte elastase (HLE).

`CC1=C(C(=O)OCc2ccccc2)N2C(=O)C[C@H]2S1` (racemic): the 50% inhibitory concentration (IC50) at Neutrophil elastase [1] was more than 20 µM. Moreover, the Ki at Neutrophil elastase [2] was 310 µM.
